# Data taken from publication PMC6152084, “Synthesis of New Hydrazone Derivatives for MAO Enzymes Inhibitory Activity” (Molecules : A Journal of Synthetic Chemistry and Natural …, 2017).
# Biological target: T1, hMAO-A (Homo sapiens, UniProt P21397)
# T1 construct: purchased Sigma-Aldrich (Steinheim, Germany)
# T1 sequence (P21397 1-527): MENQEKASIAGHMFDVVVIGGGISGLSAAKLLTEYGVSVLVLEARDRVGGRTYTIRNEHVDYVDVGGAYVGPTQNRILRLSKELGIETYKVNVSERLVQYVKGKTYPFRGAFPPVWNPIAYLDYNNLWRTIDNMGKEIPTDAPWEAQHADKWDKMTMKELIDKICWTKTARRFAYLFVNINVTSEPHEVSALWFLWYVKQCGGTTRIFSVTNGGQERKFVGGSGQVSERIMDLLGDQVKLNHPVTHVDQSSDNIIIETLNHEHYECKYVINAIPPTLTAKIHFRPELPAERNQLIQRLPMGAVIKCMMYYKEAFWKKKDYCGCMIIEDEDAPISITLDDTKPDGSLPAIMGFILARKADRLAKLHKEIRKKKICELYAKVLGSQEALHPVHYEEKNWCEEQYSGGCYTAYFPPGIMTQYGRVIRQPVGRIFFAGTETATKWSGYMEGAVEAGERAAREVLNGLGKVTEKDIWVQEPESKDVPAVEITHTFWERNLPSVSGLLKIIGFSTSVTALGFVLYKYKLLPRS
# Experiment: MAO-A inhibition assay (in vitro fluorometric Amplex Red method)
# Assay type: biochemical
# Conditions: for inhibition at 1000 µM: 10^−3 M; for inhibition at 100 µM: 10^−4 M; for inhibition at 10 µM: 10^−5 M; for inhibition at 1 µM: 10^−6 M; for inhibition at 0.1 µM: 10^−7 M; for inhibition at 0.01 µM: 10^−8 M; for inhibition at 0.001 µM: 10^−9 M; for inhibition against hMAO-A in the initial assay: first step, 10^−3 and 10^−4 M; for selectivity towards hMAO-A: versus hMAO-B
SMILES,IC50 [nM],inhibition at 1000 µM [%],inhibition at 100 µM [%],inhibition at 10 µM [%],inhibition at 1 µM [%],inhibition at 0.1 µM [%],inhibition at 0.01 µM [%],inhibition at 0.001 µM [%],inhibition against hMAO-A in the initial assay,selectivity towards hMAO-A,fold more active than moclobemide against hMAO-A (ratio of IC50 values) [fold]
"CC1CCCCN1c1ccc(/C=N/Nc2ccccc2)cc1 (stereo not drawn) [Compound 2a, 1-(4-(2-Methypiperidin-1-yl)benzylidene)-2-phenylhydrazine]",342 ± 15,88.2 ± 0.821,84.29 ± 0.641,75.1 ± 0.693,50.8 ± 0.582,34.7 ± 0.378,30.5 ± 0.542,25.5 ± 0.517,more than 50%,selective inhibition potency towards hMAO-A,–
"CN1CCN(c2ccc(C=NNc3ccccc3)cc2)CC1 [Compound 2b, 1-(4-(4-Methylpiperazine-1-yl)benzylidene)-2-phenylhydrazine]",28 ± 1,93.53 ± 0.412,88.86 ± 0.214,80.42 ± 0.47,66.22 ± 0.54,48.2 ± 0.631,45.3 ± 0.48,38.15 ± 0.367,more than 50%,selective inhibition potency towards hMAO-A,216
